Measurements as given in patent US11174251B2, “Compositions and methods for inhibition of the JAK pathway” (Rigel Pharmaceuticals, Inc., priority 2010, dated 2021).
pIC50: −log10 of the molar value. Counter-ions that a name gives are not always drawn.

Target: T1, JAK3 (Homo sapiens, UniProt P52333)
T1 construct: The Ramos B-cell line was acquired from ATCC (ATCC Catalog No. CRL-1596); host or cells: Ramos B-cell line (human)
T1 sequence (P52333 1-1124): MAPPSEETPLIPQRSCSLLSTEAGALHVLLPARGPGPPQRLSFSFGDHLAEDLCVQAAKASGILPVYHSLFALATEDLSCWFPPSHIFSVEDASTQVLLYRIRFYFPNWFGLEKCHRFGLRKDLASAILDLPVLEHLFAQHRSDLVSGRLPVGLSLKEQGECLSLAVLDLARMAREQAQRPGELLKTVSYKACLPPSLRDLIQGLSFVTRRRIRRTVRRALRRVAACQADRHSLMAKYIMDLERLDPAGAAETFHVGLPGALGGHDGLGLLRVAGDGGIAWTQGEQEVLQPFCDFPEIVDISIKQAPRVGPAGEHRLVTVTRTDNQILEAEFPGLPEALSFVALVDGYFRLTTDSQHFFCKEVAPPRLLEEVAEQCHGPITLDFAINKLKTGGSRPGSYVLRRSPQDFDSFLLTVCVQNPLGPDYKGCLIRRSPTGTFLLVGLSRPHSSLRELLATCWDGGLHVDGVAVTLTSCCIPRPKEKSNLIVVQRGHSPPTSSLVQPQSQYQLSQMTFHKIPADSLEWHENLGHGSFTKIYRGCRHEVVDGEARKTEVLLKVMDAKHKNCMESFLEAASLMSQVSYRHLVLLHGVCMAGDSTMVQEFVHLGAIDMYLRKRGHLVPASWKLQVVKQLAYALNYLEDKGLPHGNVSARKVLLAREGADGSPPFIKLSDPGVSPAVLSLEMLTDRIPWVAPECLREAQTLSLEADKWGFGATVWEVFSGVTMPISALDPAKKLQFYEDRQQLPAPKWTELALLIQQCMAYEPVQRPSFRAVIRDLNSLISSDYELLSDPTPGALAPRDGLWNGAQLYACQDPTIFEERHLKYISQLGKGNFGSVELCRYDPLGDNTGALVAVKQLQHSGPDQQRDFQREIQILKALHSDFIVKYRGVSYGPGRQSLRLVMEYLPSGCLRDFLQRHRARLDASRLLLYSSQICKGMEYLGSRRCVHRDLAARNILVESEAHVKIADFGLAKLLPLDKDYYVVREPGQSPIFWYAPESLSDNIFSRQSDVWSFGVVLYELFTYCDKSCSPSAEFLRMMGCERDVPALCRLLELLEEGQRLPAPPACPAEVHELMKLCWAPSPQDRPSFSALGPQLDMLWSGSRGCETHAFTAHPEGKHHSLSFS
Assay: Assay for CD23 expression on Ramos B-cells stimulated by IL-4 (Table IV: ability to inhibit JAK3 activity)
Assay type: cell-based
Conditions: tested under conditions described in Example 3 (so in the source)
Source text: One means of assaying for such inhibition is detection of the effect of the 2,4-pyrimidinediamine compounds on the upregulation of downstream gene products. In the Ramos/IL4 assay, B-cells are stimulated with the cytokine Interleukin-4 (IL-4) leading to the activation of the JAK/Stat pathway through phosphorylation of the JAK family kinases, JAK1 and JAK3, which in turn phosphorylate and activate the transcription factor Stat-6. […] To study the effect of inhibitors (for example, the 2,4-substituted pyrimindinediamine compounds described herein) on the JAK1 and JAK3 kinases, human Ramos B cells are stimulated with human IL-4. 20 to 24 hours post stimulation, cells are stained for upregulation of CD23 and analyzed using FACS.
B-cells stimulated with cytokine Interleukin-4 (IL-4) activate the JAK/Stat pathway through phosphorylation of the JAK family kinases, JAK-1 and JAK-3, which in turn phosphorylate and activate the transcription factor Stat-6. […] To study the effect of inhibitors on the JAK family kinases, human Ramos B cells were stimulated with human IL-4 and the surface expression of CD23 was measured.
The day before the experiment, Ramos B-cells were diluted to 3.5×10^5 cells/mL to ensure that they were in a logarithmic growth phase.
Cells were spun down and suspended in RPMI with 5% serum. 5×10^4 cells were used per point in a 96-well tissue culture plate. Cells were pre-incubated with compound or DMSO (Sigma-Aldrich, St. Louis, Mo., Cat No. D2650) vehicle control for 1 hour in a 37° C. incubator. Cells were then stimulated with IL-4 (Peprotech Inc., Rocky Hill, N.J., Cat No. 200-04) for a final concentration of 50 units/mL for 20-24 hours. […] Detection was performed using a BD LSR I System Flow Cytometer, purchased from Becton Dickinson Biosciences of San Jose, Calif.
The compound designations in Table IV are consistent with those of Tables I-II above.

SMILES	pIC50
Cc1cnc(Nc2ccc3c(c2)COC3)nc1Nc1ccc2oc(=O)[nH]c2c1 [II-9, N2-(1,3-dihydro-isobenzofuran-5-yl)-5-methyl-N4-(2-oxo-2,3-dihydro-1,3-benzoxazol-5-yl)-2,4-pyrimidinediamine]	> 6.30
COc1cc(Nc2ncc(Cl)c(Nc3ccc4oc(=O)[nH]c4c3)n2)cc(C(F)(F)F)c1 [Compound I-12, 5-(5-chloro-2-(3-methoxy-5-(trifluoromethyl)phenylamino)pyrimidin-4-ylamino)benzo[d]oxazol-2(3H)-one]	> 6.30
Cc1cnc(Nc2cc(C)c(C)c(C)c2)nc1Nc1cc(CN2CCN(C)CC2)c2oc(=O)[nH]c2c1 [Compound I-93, 5-(2-(3,4,5-trimethylphenylamino)-5-methylpyrimidin-4-ylamino)-7-((4-methylpiperazin-1-yl)methyl)benzo[d]oxazol-2(3H)-one]	5.30 to 6.30
COC(=O)c1cnc(Nc2ccc(C(N)=O)cc2)nc1Nc1ccc2oc(=O)[nH]c2c1 [Compound I-54, 2-(4-Carbamoyl-phenylamino)-4-(2-oxo-2,3-dihydro-benzooxazol-5-ylamino)-pyrimidine-5-carboxylic acid methyl ester trifluoroacetate salt]	< 5.00
[2H]C([2H])([2H])c1c(C)cc(Nc2ncc(C)c(Nc3ccc4oc(=O)[nH]c4c3)n2)cc1C [Compound I-35, 5-[5-Methyl-2-(3,5-dimethyl-4-d3-methyl-phenylamino)-pyrimidin-4-ylamino]-3H-benzooxazol-2-one trifluoroacetate salt]	> 6.30
O=C(Nc1ccccc1)c1ccc(Nc2ncc(F)c(Nc3ccc4oc(=O)[nH]c4c3)n2)cc1C(F)(F)F [Compound I-166, 4-(5-fluoro-4-(2-oxo-2,3-dihydrobenzo[d]oxazol-5-ylamino)pyrimidin-2-ylamino)-N-phenyl-2-(trifluoromethyl)benzamide formate salt]	> 6.30
Cc1ccc(Nc2ncc(Cl)c(Nc3ccc4oc(=O)[nH]c4c3)n2)cc1C(F)(F)F [Compound I-9, 5-(5-chloro-2-(4-methyl-3-(trifluoromethyl)phenylamino)pyrimidin-4-ylamino)benzo[d]oxazol-2(3H)-one]	> 6.30
Cc1cnc(Nc2cc(C)c(C(=O)OC(C)(C)C)c(C)c2)nc1Nc1ccc2oc(=O)[nH]c2c1 [Compound I-150, N2-(4-tert-butoxycarbonyl-3,5-dimethyl)phenyl-5-methyl-N4-(2-oxo-2,3-dihydro-1,3-benzoxazol-5-yl)-2,4-pyrimidinediamine]	> 6.30
CC(C)NC(=O)c1ccc(Nc2ncc(F)c(Nc3ccc4oc(=O)[nH]c4c3)n2)cc1 [Compound I-163, 4-(5-fluoro-4-(2-oxo-2,3-dihydrobenzo[d]oxazol-5-ylamino)pyrimidin-2-ylamino)-N-isopropylbenzamide formate salt]	> 6.30
Cc1ccc(Nc2ncc(C)c(Nc3ccc4oc(=O)[nH]c4c3)n2)cc1N(C)C [Compound I-17, 5-[2-(3-Dimethylamino-4-methyl-phenylamino)-5-methyl-pyrimidin-4-ylamino]-3H-benzooxazol-2-one]	> 6.30
Cc1cc(Nc2ncc(F)c(Nc3cc(F)c4oc(=O)[nH]c4c3)n2)cc(C)c1F [Compound I-189, 5-(2-(4-fluoro-3,5-dimethylphenylamino)-5-fluoropyrimidin-4-ylamino)-7-fluorobenzo[d]oxazol-2(3H)-one trifluoroacetate salt]	> 6.30
Cc1cnc(Nc2cc(C)c(C)c(C)c2)nc1Nc1cc(CN2CCCC2)c2oc(=O)[nH]c2c1 [Compound I-91, 5-(2-(3,4,5-trimethylphenylamino)-5-methylpyrimidin-4-ylamino)-7-((pyrrolidin-1-yl)methyl)benzo[d]oxazol-2(3H)-one]	5.30 to 6.30
Cc1ccc(Nc2ncc(C)c(Nc3ccc4oc(=O)[nH]c4c3)n2)nc1C [II-21, N2-(5,6-dimethylpyridin-2-yl)-5-methyl-N4-(2-oxo-2,3-dihydro-1,3-benzoxazol-5-yl)-2,4-pyrimidinediamine]	5.30 to 6.30
COCCOc1ccc(Nc2ncc(C)c(Nc3ccc4oc(=O)[nH]c4c3)n2)c(F)c1OCCOC [Compound I-77, 5-(2-(2-fluoro-3,4-bis(2-methoxyethoxy)phenylamino)-5-methylpyrimidin-4-ylamino)benzo[d]oxazol-2(3H)-one trifluoroacetate salt]	> 6.30
COC(=O)c1cnc(Nc2cc(C)c(F)c(OC)c2)nc1Nc1ccc2oc(=O)[nH]c2c1 [Compound I-58, 2-(4-Fluoro-3-methoxy-5-methyl-phenylamino)-4-(2-oxo-2,3-dihydro-benzooxazol-5-ylamino)-pyrimidine-5-carboxylic acid methyl ester trifluoroacetate salt]	< 5.00
COc1ccc(Nc2ncc(F)c(Nc3ccc4oc(=O)[nH]c4c3)n2)cc1C(F)F [Compound I-197, 5-(2-(3-(difluoromethyl)-4-methoxyphenylamino)-5-fluoropyrimidin-4-ylamino)benzo[d]oxazol-2(3H)-one formate salt]	> 6.30
COc1c(F)ccc(Nc2ncc(Cl)c(Nc3ccc4oc(=O)[nH]c4c3)n2)c1F [Compound I-7, 5-(5-chloro-2-(2,4-difluoro-3-methoxyphenylamino)pyrimidin-4-ylamino)benzo[d]oxazol-2(3H)-one trifluoroacetate salt]	> 6.30
Cc1cc(Nc2nc(Nc3cccc(S(C)(=O)=O)c3)ncc2F)cc2[nH]c(=O)oc12 [Compound I-172, 5-(2-(3-(methylsulfonyl)phenylamino)-5-fluoropyrimidin-4-ylamino)-7-methylbenzo[d]oxazol-2(3H)-one trifluoroacetate salt]	> 6.30
O=c1[nH]c2cc(Nc3nc(Nc4ccc(C(F)(F)F)cc4)ncc3Cl)ccc2o1 [Compound I-15, 5-(5-chloro-2-(4-(trifluoromethyl)phenylamino)pyrimidin-4-ylamino)benzo[d]oxazol-2(3H)-one trifluoroacetate salt]	> 6.30
NC(=O)c1cccc(Nc2nccc(Nc3ccc4oc(=O)[nH]c4c3)n2)c1 [Compound I-3, 3-(4-(2-oxo-2,3-dihydrobenzo[d]oxazol-5-ylamino)pyrimidin-2-ylamino)benzamide trifluoroacetate salt]	5.30 to 6.30
Cc1ccc(Nc2ncc(F)c(Nc3ccc4oc(=O)[nH]c4c3)n2)cc1-c1cccnc1 [Compound I-204, 5-(2-(4-methyl-3-(pyridin-3-yl)phenylamino)-5-fluoropyrimidin-4-ylamino)benzo[d]oxazol-2(3H)-one]	> 6.30
CCNc1cc(Nc2ncc(Cl)c(Nc3ccc4oc(=O)[nH]c4c3)n2)cc(C)c1C [Compound I-87, 5-(5-chloro-2-(3-(ethylamino)-4,5-dimethylphenylamino)pyrimidin-4-ylamino)benzo[d]oxazol-2(3H)-one formate salt]	> 6.30
Cc1ccc(Nc2ncc(F)c(Nc3ccc4oc(=O)[nH]c4c3)n2)cc1 [Compound I-202, 5-(2-(p-tolylamino)-5-fluoropyrimidin-4-ylamino)benzo[d]oxazol-2(3H)-one trifluoroacetate salt]	5.30 to 6.30
